pIC50: −log10 of the molar value. The source made the active and inactive calls. The calls are words filed in the database; no cut-off is given here.
What was measured:
[1] = Binding affinity to polyA-polyU dsRNA (unknown origin) assessed as change in melting temperature at 0.1 ratio of compound to RNA by spectrophotometric analysis; assay type: nucleic-acid assay
Calf thymus DNA [2] = experiment: Binding affinity to calf thymus DNA assessed as change in melting temperature at compound to calf thymus DNA polynucleotide ratio of 0.5 by spectrophotometric analysis; assay type: nucleic-acid assay; details: Bos taurus
Calf thymus DNA [3] = experiment: Binding affinity to calf thymus DNA assessed as change in melting temperature at compound to calf thymus DNA polynucleotide ratio of 0.1 by spectrophotometric analysis; assay type: nucleic-acid assay; details: Bos taurus
Calf thymus DNA [4] = experiment: Ratio of compound concentration to polynucleotide phosphate concentration for binding affinity to calf thymus DNA; assay type: nucleic-acid assay; details: Bos taurus
[5] = tested on: Poly(dA-dU)oligonucleotide; experiment: (§1) Binding affinity to polyA-polyU dsRNA (unknown origin) assessed as binding constant by UV-vis spectrophotometric method; assay type: nucleic-acid assay
Trypanosoma brucei = experiment: Antitrypanosomal activity against Trypanosoma brucei 221 incubated for 48 hrs by resazurin based fluorescence assay; assay type: functional, organism-based; details: Trypanosoma brucei, 221, 48 h
Calf thymus DNA [6] = experiment: Binding affinity to calf thymus DNA assessed as hypochromic effect by UV-vis spectrophotometric method relative to control; assay type: nucleic-acid assay; set-up: concentration or dose not given beside the values; details: Bos taurus
L6 = experiment: Cytotoxicity against rat L6 cells incubated for 6 days by resazurin based fluorescence assay; assay type: cell-based; details: L6, 144 h
Calf thymus DNA [7] = experiment: Binding affinity to calf thymus DNA by UV-vis spectrophotometric method; assay type: nucleic-acid assay; details: Bos taurus
[8] = tested on: Poly(dA-dU)oligonucleotide; experiment: Binding affinity to polyA-polyU dsRNA (unknown origin) assessed as change in melting temperature at 0.3 ratio of compound to RNA by spectrophotometric analysis; assay type: nucleic-acid assay
Calf thymus DNA [9] = experiment: Binding affinity to calf thymus DNA assessed as conformational change by circular dichroism analysis; assay type: nucleic-acid assay; details: Bos taurus
[10] = Ratio of compound concentration to polynucleotide phosphate concentration for binding affinity to polyA-polyU dsRNA (unknown origin); assay type: nucleic-acid assay
Calf thymus DNA [11] = experiment: Binding affinity to calf thymus DNA assessed as change in melting temperature at compound to calf thymus DNA polynucleotide ratio of 0.3 by spectrophotometric analysis; assay type: nucleic-acid assay; details: Bos taurus
[12] = tested on: Poly(dA-dU)oligonucleotide; experiment: Binding affinity to polyA-polyU dsRNA (unknown origin) assessed as conformational change by circular dichroism analysis; assay type: nucleic-acid assay
[13] = Binding affinity to polyA-polyU dsRNA (unknown origin) assessed as hypochromic effect by UV-vis spectrophotometric method relative to control; assay type: nucleic-acid assay; set-up: concentration or dose not given beside the values
[14] = as §1; assay type: nucleic-acid assay
[15] = tested on: Poly(dA-dU)oligonucleotide; experiment: Binding affinity to polyA-polyU dsRNA (unknown origin) assessed as change in melting temperature at 0.5 ratio of compound to RNA by spectrophotometric analysis; assay type: nucleic-acid assay

| Structure (SMILES) | ΔTm [1] | ΔTm (Calf thymus DNA [2]) | ΔTm (Calf thymus DNA [3]) | Ratio (Calf thymus DNA [4]) | log Ks [5] | pIC50 (Trypanosoma brucei) | IC90 (Trypanosoma brucei) | Activity (Calf thymus DNA [6]) | pIC50 (L6) | log Ks (Calf thymus DNA [7]) | ΔTm [8] | Activity (Calf thymus DNA [9]) | Ratio [10] | ΔTm (Calf thymus DNA [11]) | Activity [12] | Activity [13] | Activity [14] | Activity (Calf thymus DNA [7]) | ΔTm [15] |
| --- | --- | --- | --- | --- | --- | --- | --- | --- | --- | --- | --- | --- | --- | --- | --- | --- | --- | --- | --- |
| Cl.Cl.c1cc2[nH]c(-c3ccc(Cn4cc(COCc5cn(Cc6ccc(-c7nc8cc(C9=NCCN9)ccc8[nH]7)o6)nn5)nn4)o3)nc2cc1C1=NCCN1 | 3.5 °C | 12.5 °C | 12.4 °C | 0.89 | 7.17 | 5.42 | 6 µM | 28% | 3.91 | 6.23 | 4 °C | Active | 0.85 | 12.7 °C | Active | 22% |  |  |  |
| Fc1ccc2[nH]c(-c3ccc(Cn4cc(COc5ccc(-c6ccc(OCc7cn(Cc8ccc(-c9nc%10cc(F)ccc%10[nH]9)o8)nn7)cc6)cc5)nn4)o3)nc2c1 |  |  |  | 0.21 |  | < 4.82 |  | 16% |  | 4 to 5 | 0 °C | inactive |  | 0 °C |  | 23% | Active |  |  |
| Cl.Cl.N=C(N)c1ccc2[nH]c(-c3ccc(Cn4cc(COc5ccc(OCc6cn(Cc7ccc(-c8nc9cc(C(=N)N)ccc9[nH]8)o7)nn6)cc5)nn4)o3)nc2c1 | 0 °C | 12.3 °C | 9.5 °C |  |  | 5.89 | 5.6 µM | 9% | 4.40 |  | 0 °C | Active |  | 10.7 °C | Active | 7% | Active | Active | 0 °C |
| Cl.Cl.c1cc(OCc2cn(Cc3ccc(-c4nc5cc(C6=NCCN6)ccc5[nH]4)o3)nn2)ccc1OCc1cn(Cc2ccc(-c3nc4cc(C5=NCCN5)ccc4[nH]3)o2)nn1 | 2.7 °C | 0 °C | 8.2 °C |  |  | 6.12 | 1.5 µM | 6% | 4.22 |  | 2.2 °C | Active |  | 8.9 °C | Active | 11% | Active | Active | 0 °C |
| Cl.Cl.c1cc2[nH]c(-c3ccc(Cn4cc(CCCc5cn(Cc6ccc(-c7nc8cc(C9=NCCN9)ccc8[nH]7)o6)nn5)nn4)o3)nc2cc1C1=NCCN1 | 1.6 °C | 19.1 °C | 13.5 °C | 0.05 | 6.83 | 5.41 | 5.4 µM | 17% | 3.67 | 7.62 | 1.8 °C | Active | 0.42 | 13.8 °C | Active | 32% |  |  | 2.7 °C |
| CC(C)NC(=N)c1ccc2[nH]c(-c3ccc(Cn4cc(COc5ccc(OCc6cn(Cc7ccc(-c8nc9cc(C(=N)NC(C)C)ccc9[nH]8)o7)nn6)cc5)nn4)o3)nc2c1.Cl.Cl | 0 °C | 12.2 °C | 8 °C |  |  | 5.82 | 2.8 µM | 23% | 3.92 |  | 0 °C | Active |  | 11 °C | Active | 11% | Active | Active | 0 °C |

Source: ChEMBL document CHEMBL4346704, “Novel symmetric bis-benzimidazoles: Synthesis, DNA/RNA binding and antitrypanosomal activity” (Eur J Med Chem, 2019)
